{"source": "patent EP0607274B1", "about": "“3-(N-ISOPROPYL-N-n-PROPYLAMINO)-5-(N-ISOPROPYL)CARBAMOYLCHROMAN” (priority 1991, dated 1993)", "key": {"5-HT1A receptors": {"biological_target": "T1, 5-HT1A receptors (Rattus norvegicus, UniProt P19327)", "T1 construct": "Cerebral cortex + hippocampus from each rat was dissected and homogenized; from tissue; host or cells: rat cerebral cortex + hippocampus homogenate", "T1 sequence (P19327 1-422)": "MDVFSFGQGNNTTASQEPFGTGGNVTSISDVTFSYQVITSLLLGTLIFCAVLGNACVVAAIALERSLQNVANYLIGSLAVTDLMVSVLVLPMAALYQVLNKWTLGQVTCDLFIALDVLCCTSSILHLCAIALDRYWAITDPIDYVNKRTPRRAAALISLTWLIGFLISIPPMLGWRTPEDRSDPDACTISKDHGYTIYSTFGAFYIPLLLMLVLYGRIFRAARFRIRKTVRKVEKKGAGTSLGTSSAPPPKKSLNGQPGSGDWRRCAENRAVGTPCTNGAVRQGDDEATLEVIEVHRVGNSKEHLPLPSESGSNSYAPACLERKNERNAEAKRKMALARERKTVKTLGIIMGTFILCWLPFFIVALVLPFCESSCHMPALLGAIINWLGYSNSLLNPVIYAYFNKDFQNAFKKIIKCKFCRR", "experiment": "5HT1A binding assay (3H-8-OH-DPAT, rat cerebral cortex + hippocampus homogenate)", "settings": "rat brain, 37°C, 10 minutes", "experimental": "In order to evaluate the 5-HT-receptor stimulating effect and selectivity, the affinity for various receptors in rat brain were measured in vitro using receptor assay. The stereospecific (R)-enantiomeric compound of the invention (R)-3-(N-isopropyl-N-n-propylamino)-5-(N-isopropyl)carbamoylchroman has Ki 8.6 (nM) and the racemic compound 3-(N-isopropyl-N-n-propylamino)-5-(N-isopropyl)-carbamoylchroman has Ki 24 (nM). The Ki value for the (S)-enantiomer exceeded 1000 nM.\nMethod: 5HT1A binding assay. Cerebral cortex + hippocampus from each rat was dissected and homogenized in 15 ml ice-cold 50 mM Tris-HCl buffer 4.0 mM CaCl2 and 5.7 mM ascorbic acid, pH 7.5 with an Ultra-Turrax (Janke & Kunkel, Staufen, FRG) for ten s. After centrifugation for 12.5 min at 17,000 rpm (39,800 x g in a Beckman centrifuge with a chilled JA-17 rotor (Beckman, Palo Alto, CA, USA), the pellets were resuspended in the same buffer and homogenization and centrifugation repeated. To each pellet 5 ml ice-cold 0.32 M sucrose were added and homogenized for 5 sec. These samples were kept frozen at -70°C. When used they were diluted with the buffer to 8 mg tissue/ml and homogenized for 10 sec. The tissue homogenates were incubated for ten minutes at 37°C and then supplied with 10 µM pargyline followed by reincubation for 10 minutes.\nThe binding assay followed that described by Peroutka, J. Neurochem. 47, 529-540, (1986). The incubation mixture (2 ml) contained ^3H-8-OH-DPAT (0.25 to 8 nM), 5 mg/ml tissue homogenate in 50 mM Tris-HCl buffer containing 4.0 mM CaCl2 and 5.7 mM ascorbic acid, pH 7.5. Six different concentrations of ^3H-8-OH-DPAT were analyzed. Binding experiments were started by the addition of tissue homogenate and followed by incubation at 37°C for 10 minutes. […] The filters were washed twice with 5 ml ice-cold 50mM Tris-HCl buffer, pH 7.5, and counted with 5 ml Ready-solv HP (Beckman) in a Beckman LS 3801 scintillation counter. Non-specific binding was measured by the addition of 10 µM 5-HT to the reaction mixture. […]"}, "[1]": {"experiment": "Oral bioavailability in dogs (plasma AUC method, i.v. versus p.o.)", "assay_type": "in vivo", "settings": "dog, 10 umol/kg, plasma level measurements, 1 µmol·kg^-1 i.v. and 10 µmol·kg^-1 p.o.", "experimental": "Dose-effect studies in rat following subcutaneous versus oral administration further support a high availability of the compound at the receptor after oral administration.\nMethod: Assessment for oral bioavailability (systemic availability) was based on the plasma area under the curve (AUC) method. An aqueous saline solution of compound of the invention was administered intravenously (i.v.) and orally (p.o.) to the animals and concentrations of the compound in plasma measured at numerous timepoints. The doses administered were 1 µmol·kg^-1 and 10 µmol·kg^-1 for intravenous and oral administration, respectively. AUC was calculated according to the trapezoidal rule. Determination of the test compound in plasma was accomplished by an HPLC method which incorporated electrochemical detection."}, "synthesis rate of 5-HT": {"test_system": "synthesis rate of 5-HT", "experiment": "Synthesis of 5-HT: accumulation of 5-HTP in rat brain after NSD 1015", "assay_type": "in vivo", "settings": "compound given 30 min before NSD 1015", "experimental": "Method: The rate of synthesis of 5-HT in the rat streatum was measured as the accumulation of 5-HTP during 30 min after inhibition of aromatic L-amino acid decarboxylase by NSD 1015 (decarboxylase inhibitor, 100 mg/kg i.p.). The test compound was administered 30 min before the NSD 1015. The regions of the brain to be examined were dissected, frozen and stored.\nThe levels of 5-HTP (5-hydroxytryptophan) was determined by use of high performance liquid chromatography (HPLC) with electrochemical detection according to the method of Magnusson, Nilsson and Westerlund (1980). The mobile phase was 0.1 M phosphate buffer (pH 2.5):methanol:acetonitrile-89:9:2 v/v, containing 1mM octylsulphate. The frozen samples were weighed and homogenized in 0,1 M perchloric acid, containing […] sodium bisulphite, 1 mM ethylene diamine tetraacetic acid (EDTA) and epinine as an internal standard. The supernatants were injected directly onto a Supelcosil C18 (3 µM) column, connected to a detector (ESA Coulochem 5100A), set to 0.05/0.40 V."}, "[2]": {"experiment": "Temperature effects: body temperature in rats", "assay_type": "in vivo", "experimental": "Method: In each test, thirty rats, weighing approx 250 g, housed in 6 cages of 5 rats, are used. The rats have free access to food and water. Before the start of testing, they are numbered and left undisturbed for at last 1 hour. Before the administration of the compound, the body temperature of each rat is measured using a YSI 2100 tele-thermometer. The thermometer probe is inserted 10 cm into the rectum and left in pace for thirty seconds. The drug is then administered either subcutaneously or orally. In each experiment vehicle and 4 doses of drug are tested. One rat in each cage receives each treatment. The order of treatment is rotated since disturbance to the cage increases the activity of the rats, and thereby their body temperature. Thirty minutes after drug administration the rats' body temperature are measured again. The procedure is repeated 60, 90 and 120 minutes after drug administration. The resultant data on body temperature is subjected to analysis of variance. A significant group by time interaction is taken as an indication of drug effect. To obtain the minimum effective dose, the mean temperature for each of the drug treated groups are compared with that of the vehicle group at each time point using Dunnett's t-test with a level of significance of p<0.02. […]"}}, "data": [{"smiles": "CCCN(C(C)C)C1COc2cccc(C(=O)NC(C)C)c2C1", "note": "(racemic) [racemate, 3-(N-Isopropyl-N-n-propylamino)-5-(N-isopropyl)carbamoyl chroman]", "values": [{"measurement": "Ki", "setting": "5-HT1A receptors", "result": 24, "unit": "nM"}, {"measurement": "bioavailability", "setting": "[1]", "result": 21, "unit": "%"}]}, {"smiles": "CCCN(C(C)C)[C@H]1COc2cccc(C(=O)NC(C)C)c2C1", "note": "[(R)-enantiomer, (R)-3-(N-Isopropyl-N-n-propylamino)-5-(N-isopropyl)carbamoylchroman]", "values": [{"measurement": "synthesis rate of 5-HT, measured as 5-HTP level in rat brain", "setting": "synthesis rate of 5-HT; 0.2 mg/kg oral administration", "result": "significant decrease"}, {"measurement": "synthesis rate of 5-HT, measured as 5-HTP level in rat brain", "setting": "synthesis rate of 5-HT; 0.1trig/kg subcutaneous administration", "result": "significant decrease"}, {"measurement": "Ki", "setting": "5-HT1A receptors", "result": 8.6, "unit": "nM"}, {"measurement": "body temperature", "setting": "[2]; 1 mg/kg oral administration", "result": "significant temperature decrease"}, {"measurement": "body temperature", "setting": "[2]; subcutaneous administration of 0.3 mg/kg", "result": "significant temperature decrease"}, {"measurement": "bioavailability", "setting": "[1]", "result": 17, "unit": "%"}]}, {"smiles": "CCCN(C(C)C)[C@@H]1COc2cccc(C(=O)NC(C)C)c2C1", "note": "[(S)-enantiomer, (S)-enantiomer of 3-(N-isopropyl-N-n-propylamino)-5-(N-isopropyl)carbamoylchroman]", "values": [{"measurement": "Ki", "setting": "5-HT1A receptors", "result": "> 1000", "unit": "nM"}]}]}
